Experiments:
TcCYP51 = conditions: formerly reported; cited from earlier work
[1] = system: T. cruzi intracellular amastigotes in H9c2 cells; test: Rate-of-Kill (RoK) high-content imaging assay, amastigotes per cell (AM/CELL) and curve descriptors; assay type: cell-based, Trypanosoma cruzi; parameters: key to ME_24h / ME_48h / ME_72h: % reduction in parasite burden (cidal response); t50pct_MCC50 / t50pct_Cmax: unit not given here; conditions: for ME_24h: 24h; for ME_48h: 48h; for ME_72h: 72h; for AM/CELL NORM: sheet figure 4 A; for tlag_Cmax / t50pct_Cmax / t50%_Cmax: at Cmax; for ME_24h (%): maximum effect at 24 h; for ME_24h (%) / ME_48h (%) / ME_72h (%): RoK assay; for ME_48h (%): maximum effect at 48 h; for ME_72h (%): maximum effect at 72 h; for ME 24h (maximum effect at 24 hours, intracellular amastigotes): maximum percentage of parasite burden reduction reached by any concentration
Outline: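 H9c2 cardiomyocytes infected with T. cruzi trypomastigotes (MOI 8, 18 h), then compounds tested at 5 μM single shot or 11-point 1/3 dilution from 50 μM. DRAQ5-stained nuclei imaged over a time course. Amastigotes per cell normalised to infected cells at 4 h (0%) and non-infected cells (100%).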

SMILES | CYP51 pIC50 (TcCYP51) | ME_24h ([1]; figure 5) | ME_48h ([1]; figure 5) | ME_72h ([1]; figure 5) | MCCE ([1]; RoK curve descriptor) [µM] | AM/CELL NORM ([1]; Time 4) | AM/CELL NORM ([1]; Time 24) | AM/CELL NORM ([1]; Time 48) | AM/CELL NORM ([1]; Time 72) | tlag_Cmax [1] [h] | t50pct_Cmax ([1]; figure 5) | tlag_Cmax ([1]; figure 5) | t50pct_MCC50 ([1]; at MCC50, figure 5) | tlag_MCC50 ([1]; at MCC50, figure 5) | MCC50 ([1]; figure 5) [µM] | MCCE ([1]; figure 5) | ME_24h (%) [1] [%] | ME_48h (%) [1] [%] | ME_72h (%) [1] [%] | ME 24h (maximum effect at 24 hours, intracellular amastigotes) [1] [%] | further results
Cc1nn(C)c(Cl)c1CN(Cc1cccnc1)Cc1ccsc1 [TCMDC-143477] | 7.2 | -46.0078 | -102.792 | -13.578 | 0.6 | -6.323 | -46.0078 | -102.792 | -72.3369 | 48.0 | 72 | 48 | 72 | 72 | 50 | 0.6173 | -46.0 | -102.8 | -13.6 | -46.0078 | 
CCCCNc1nccc(-c2c(-c3ccc(F)cc3)nn3c(N4CCOCC4)cccc23)n1 [TCMDC-143617] | < 4 | -170.943 | -538.575 | -488.335 | 5.6 | -16.0226 | -225.539 | -1143.86 | -2417.88 | 72.0 | 72 | 72 | 72 | 72 | 50 | 5.556 | -170.9 | -538.6 | -488.3 | -170.943 | 
CC(C)(C)C(Cn1ccnc1)NC(=O)c1ccc2nc(C3CC3)oc2c1 (centres unmarked) [TCMDC-143336] | 7 | -64.3403 | -179.917 | -53.9696 | 0.2 | 3.062 | -93.0977 | -442.656 | -139.753 | 48.0 | 72 | 48 | 72 | 72 | 50 | 0.2058 | -64.3 | -179.9 | -54.0 | -64.3403 | 
O=C(NCCc1ccccn1)C(c1cn[nH]c1)N1CCN(c2ccc(Cl)c(Cl)c2)CC1 (centres unmarked) [TCMDC-143411] | 6.9 | -24.7459 | 74.9666 | 99.2836 | 0.2 | 6.745 | -24.7459 | 74.9666 | 99.2836 | 24.0 | 48 | 24 | 72 | 24 |  | 0.2058 | -24.8 | 75.0 | 99.3 | -24.7459 | MCC50 ([1]; RoK curve descriptor): 16.7 µM; t50%_Cmax [1]: 48.0 h; t50%_MCC50 ([1]; at MCC50): 72.0 h; tlag_MCC50 ([1]; at MCC50): 24.0 h; MCC50 ([1]; figure 5, in µM): 16.6667
CCOc1cnn(C)c(=O)c1Nc1ccc(C(=O)NCc2ccc(F)cc2)cc1 [TCMDC-143319] | 5.4 | -74.4049 | -82.6884 | 13.1125 | 0.2 | -4.52 | -105.903 | -82.6884 | -13.3312 | 24.0 | 72 | 24 | 72 | 72 | 50 | 0.2058 | -74.4 | -82.7 | 13.1 | -74.4049 | 
COc1ccc(S(=O)(=O)NCc2ccc(-c3ccc(CN(C)CCO)cc3)cc2)cc1.O=C(O)C(F)(F)F [TCMDC-143549] | 4.8 | 31.0393 | 40.4277 | 76.5332 | 5.6 | -7.714 | 31.0393 | 40.4277 | 76.5332 | 4.0 | 72 | 4 | 72 | 24 |  | 5.556 | 31.0 | 40.4 | 76.5 | 31.0393 | MCC50 ([1]; RoK curve descriptor): 16.7 µM; t50%_Cmax [1]: 72.0 h; t50%_MCC50 ([1]; at MCC50): 72.0 h; tlag_MCC50 ([1]; at MCC50): 24.0 h; MCC50 ([1]; figure 5, in µM): 16.6667
Clc1ccc(Sc2cnccc2N2CCOCC2)cc1 [TCMDC-143602] | 7.5 | -12.5205 | -29.081 | 15.6088 | 0.2 | 3.934 | -12.5205 | -29.081 | -95.1907 | 72.0 | 72 | 72 | 72 | 72 | 50 | 0.2058 | -12.5 | -29.1 | 15.6 | -12.5205 | 
Cc1nc2nc(C)c(Cc3ccc(C(C)C)cc3)c(=O)n2[nH]1 [TCMDC-143087] | < 4 | 30.2741 | 57.5973 | 64.9642 | 0.3 | 2.257 | 40.319 | 64.8982 | 80.3688 | 4.0 | 60 | 4 | 72 | 38 |  | 0.3099 | 30.3 | 57.6 | 65.0 | 41.0116 | ME (maximum effect) in RoK assay (in words) [1]: positive value of ME from 24 hours; tlag (in words) [1]: low values of tlag; ME / cidal effect at 72 hours ([1]; 72 hours): ≤ 65%; MCC50 ([1]; RoK curve descriptor): 0.6 µM; t50%_Cmax [1]: 60.0 h; t50%_MCC50 ([1]; at MCC50): 72.0 h; tlag_MCC50 ([1]; at MCC50): 4.0 h; MCC50 ([1]; figure 5, in µM): 25.3086
O=C(NC1C(=O)N(c2ccccc2)C1c1cccnc1)c1ccc(Cl)s1 (centres unmarked) [TCMDC-143324] | 6.7 | -26.8888 | -112.607 | -10.0757 | 0.07 | -16.6269 | -26.8888 | -112.607 | -155.468 | 72.0 | 72 | 72 | 72 | 72 | 50 | 0.06859 | -26.9 | -112.6 | -10.1 | -26.8888 | 
CS(=O)(=O)c1cccc(CNC(=O)c2cncc(N3CCN(c4ccc(F)cc4)CC3)c2)c1.O=C(O)C(F)(F)F.O=C(O)C(F)(F)F.O=C(O)C(F)(F)F [TCMDC-143385] | 4.9 | -140.527 | 14.5657 | 58.9567 | 8.6 | -2.309 | -204.359 | 18.8519 | 47.2855 | 24.0 | 72 | 24 | 72 | 48 |  | 8.642 | -140.5 | 14.6 | 59.0 | -76.6949 | MCC50 ([1]; RoK curve descriptor): 1.9 µM; t50%_MCC50 ([1]; at MCC50): 72.0 h; tlag_MCC50 ([1]; at MCC50): 24.0 h; MCC50 ([1]; figure 5, in µM): 25.9259
CCCN1CCN(Cc2ccc(S(=O)(=O)Nc3cccc(C)c3)cc2)CC1.O=C(O)C(F)(F)F.O=C(O)C(F)(F)F [TCMDC-143550] | < 4 | -35.0895 | 33.2327 | 65.1227 | 0.6 | -2.745 | -35.0895 | 33.2327 | 54.4775 | 24.0 | 72 | 24 | 72 | 24 |  | 0.6173 | -35.1 | 33.2 | 65.1 | -35.0895 | MCC50 ([1]; RoK curve descriptor): 1.9 µM; t50%_Cmax [1]: 72.0 h; t50%_MCC50 ([1]; at MCC50): 72.0 h; tlag_MCC50 ([1]; at MCC50): 24.0 h; MCC50 ([1]; figure 5, in µM): 1.852
